From ChEMBL document CHEMBL3102716, “High-throughput virtual screening identifies novel N'-(1-phenylethylidene)-benzohydrazides as potent, specific, and reversible LSD1 inhibitors” (J Med Chem, 2013)
Calls of active or inactive are those of the source. The rule behind the calls is not given here.

Assays:
[1] = tested on: T47D; experiment: cells; settings: Homo sapiens, 96 h
[2] = molecular target: T1, Lysine-specific histone demethylase 1A (Homo sapiens, UniProt O60341)
Description: Inhibition of LSD1 (unknown origin) using dimethyl K4 peptide as substrate assessed as resorufin level by spectrophotometric analysis

[3] = molecular target: T1, Lysine-specific histone demethylase 1A; experiment: Reversible inhibition of full-length 6His-tagged LSD1 (unknown origin) at 10XIC50 after 1 hr relative to control
[4] = molecular target: T1, Lysine-specific histone demethylase 1A; experiment: Binding affinity to recombinant full-length His6-tagged LSD1 (unknown origin) assessed as second derivative melting temperature at 15 uM after 30 mins by differential scanning fluorimetry (reference value: […] +/- 1.08 degC)
[5] = molecular target: T1, Lysine-specific histone demethylase 1A; experiment: Reversible inhibition of full-length 6His-tagged LSD1 (unknown origin) at 10XIC50 preincubated for 1 hr followed by 100 fold dilution relative to control
[6] = molecular target: T1, Lysine-specific histone demethylase 1A; experiment: Binding affinity to recombinant full-length His6-tagged LSD1 (unknown origin) assessed as first derivative melting temperature at 15 uM after 30 mins by differential scanning fluorimetry
[7] = molecular target: T1, Lysine-specific histone demethylase 1A; experiment: Binding affinity to recombinant full-length His6-tagged LSD1 (unknown origin) assessed as Boltzmann melting temperature at 15 uM after 30 mins by differential scanning fluorimetry
[8] = molecular target: T1, Lysine-specific histone demethylase 1A; experiment: Inhibition of GST-tagged human recombinant LSD1 using dimethylated H3K4 peptide as substrate by mass spectrometric analysis
[9] = molecular target: T2, Amine oxidase [flavin-containing] B (Homo sapiens, UniProt P27338)
T2 sequence (P27338 whole entry): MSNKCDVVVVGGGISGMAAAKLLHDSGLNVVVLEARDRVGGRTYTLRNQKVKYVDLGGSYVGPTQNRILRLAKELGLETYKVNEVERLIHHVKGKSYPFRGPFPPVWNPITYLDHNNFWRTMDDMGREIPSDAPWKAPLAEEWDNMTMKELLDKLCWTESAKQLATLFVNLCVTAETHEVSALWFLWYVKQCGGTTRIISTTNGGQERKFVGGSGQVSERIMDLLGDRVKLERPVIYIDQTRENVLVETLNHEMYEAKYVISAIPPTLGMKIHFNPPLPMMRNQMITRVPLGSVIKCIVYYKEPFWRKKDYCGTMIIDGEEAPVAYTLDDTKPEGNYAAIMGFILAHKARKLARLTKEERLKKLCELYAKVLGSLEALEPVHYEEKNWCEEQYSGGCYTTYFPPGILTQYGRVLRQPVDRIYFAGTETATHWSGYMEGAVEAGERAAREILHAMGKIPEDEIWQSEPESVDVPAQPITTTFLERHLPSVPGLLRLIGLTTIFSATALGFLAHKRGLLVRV
Description: Inhibition of MAO-B (unknown origin)

[10] = molecular target: Voltage-gated inwardly rectifying potassium channel KCNH2 (Homo sapiens, UniProt Q12809); experiment: Inhibition of human ERG
Voltage-gated inwardly rectifying potassium channel KCNH2, sequence (Q12809 whole entry): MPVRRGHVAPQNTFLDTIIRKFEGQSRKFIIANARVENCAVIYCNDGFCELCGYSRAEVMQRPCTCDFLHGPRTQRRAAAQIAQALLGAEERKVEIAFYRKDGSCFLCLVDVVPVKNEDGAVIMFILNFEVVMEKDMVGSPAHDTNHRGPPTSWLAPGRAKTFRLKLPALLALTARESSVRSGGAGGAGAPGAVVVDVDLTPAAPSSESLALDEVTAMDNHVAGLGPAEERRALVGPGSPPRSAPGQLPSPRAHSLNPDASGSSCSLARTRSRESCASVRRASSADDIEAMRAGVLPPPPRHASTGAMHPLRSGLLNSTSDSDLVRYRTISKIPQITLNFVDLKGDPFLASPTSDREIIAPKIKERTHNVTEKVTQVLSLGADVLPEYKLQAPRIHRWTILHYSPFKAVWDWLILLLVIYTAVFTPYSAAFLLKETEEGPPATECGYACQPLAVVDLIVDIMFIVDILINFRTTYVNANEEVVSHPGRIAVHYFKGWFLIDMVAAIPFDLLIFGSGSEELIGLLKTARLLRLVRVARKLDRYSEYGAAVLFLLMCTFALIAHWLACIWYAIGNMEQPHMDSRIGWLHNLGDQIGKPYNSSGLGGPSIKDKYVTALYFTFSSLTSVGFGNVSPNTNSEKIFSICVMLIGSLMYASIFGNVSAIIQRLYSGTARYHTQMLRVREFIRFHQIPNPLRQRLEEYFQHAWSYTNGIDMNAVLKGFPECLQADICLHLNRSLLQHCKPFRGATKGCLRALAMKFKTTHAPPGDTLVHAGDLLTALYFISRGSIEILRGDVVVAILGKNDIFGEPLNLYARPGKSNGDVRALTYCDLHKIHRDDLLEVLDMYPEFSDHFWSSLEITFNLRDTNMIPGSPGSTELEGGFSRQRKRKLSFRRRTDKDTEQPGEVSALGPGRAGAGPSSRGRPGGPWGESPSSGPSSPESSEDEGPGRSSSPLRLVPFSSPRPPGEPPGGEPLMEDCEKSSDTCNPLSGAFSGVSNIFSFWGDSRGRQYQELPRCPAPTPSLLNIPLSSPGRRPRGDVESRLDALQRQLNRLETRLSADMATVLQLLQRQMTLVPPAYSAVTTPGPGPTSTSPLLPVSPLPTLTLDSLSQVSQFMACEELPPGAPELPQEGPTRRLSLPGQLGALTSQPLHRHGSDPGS

[11] = molecular target: Cytochrome P450 2D6 (Homo sapiens, UniProt P10635); experiment: Inhibition of CYP2D6 (unknown origin); type: ADME
Cytochrome P450 2D6, sequence (P10635 whole entry): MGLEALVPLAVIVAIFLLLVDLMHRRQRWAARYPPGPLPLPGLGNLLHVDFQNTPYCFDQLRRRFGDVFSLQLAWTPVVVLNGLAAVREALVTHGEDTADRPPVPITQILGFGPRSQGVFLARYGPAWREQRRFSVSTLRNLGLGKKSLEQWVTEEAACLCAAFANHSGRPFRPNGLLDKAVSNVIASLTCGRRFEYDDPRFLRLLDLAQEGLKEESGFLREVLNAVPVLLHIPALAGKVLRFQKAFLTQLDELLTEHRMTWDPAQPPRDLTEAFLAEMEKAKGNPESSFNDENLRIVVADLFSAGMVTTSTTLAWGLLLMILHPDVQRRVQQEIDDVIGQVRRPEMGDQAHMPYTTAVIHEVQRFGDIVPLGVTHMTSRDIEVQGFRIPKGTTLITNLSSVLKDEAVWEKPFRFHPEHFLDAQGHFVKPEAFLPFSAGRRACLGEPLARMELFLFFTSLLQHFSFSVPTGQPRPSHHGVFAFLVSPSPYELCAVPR

[12] = molecular target: T1, Lysine-specific histone demethylase 1A; experiment: Non-competitive inhibition of recombinant full-length His6-tagged LSD1 (unknown origin) using dimethylated K4N-terminal H3 peptide as substrate at 10 nM by Michaelis-Menten plot analysis
[13] = molecular target: Cytochrome P450 3A4 (Homo sapiens, UniProt P08684); experiment: Inhibition of CYP3A4 (unknown origin); type: ADME
Cytochrome P450 3A4, sequence (P08684 whole entry): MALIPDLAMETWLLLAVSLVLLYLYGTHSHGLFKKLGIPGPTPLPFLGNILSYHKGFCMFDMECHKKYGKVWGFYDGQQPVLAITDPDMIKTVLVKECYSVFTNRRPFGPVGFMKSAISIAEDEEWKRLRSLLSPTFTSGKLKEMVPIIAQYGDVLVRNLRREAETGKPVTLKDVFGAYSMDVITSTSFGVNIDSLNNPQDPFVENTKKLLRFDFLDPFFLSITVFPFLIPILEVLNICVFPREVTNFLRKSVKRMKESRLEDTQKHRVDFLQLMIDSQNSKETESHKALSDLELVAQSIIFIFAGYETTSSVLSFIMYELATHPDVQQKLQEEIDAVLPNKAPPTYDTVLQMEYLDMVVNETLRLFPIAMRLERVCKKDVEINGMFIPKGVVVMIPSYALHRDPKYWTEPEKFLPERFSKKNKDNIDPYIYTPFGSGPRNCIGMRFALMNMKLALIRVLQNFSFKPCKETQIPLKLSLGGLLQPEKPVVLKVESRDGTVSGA

[14] = Inhibition of D-lactate dehydrogenase (unknown origin); design: species or system Homo sapiens
[15] = molecular target: Cytochrome P450 2C9 (Homo sapiens, UniProt P11712); experiment: Inhibition of CYP2C9 (unknown origin); type: ADME
Cytochrome P450 2C9, sequence (P11712 whole entry): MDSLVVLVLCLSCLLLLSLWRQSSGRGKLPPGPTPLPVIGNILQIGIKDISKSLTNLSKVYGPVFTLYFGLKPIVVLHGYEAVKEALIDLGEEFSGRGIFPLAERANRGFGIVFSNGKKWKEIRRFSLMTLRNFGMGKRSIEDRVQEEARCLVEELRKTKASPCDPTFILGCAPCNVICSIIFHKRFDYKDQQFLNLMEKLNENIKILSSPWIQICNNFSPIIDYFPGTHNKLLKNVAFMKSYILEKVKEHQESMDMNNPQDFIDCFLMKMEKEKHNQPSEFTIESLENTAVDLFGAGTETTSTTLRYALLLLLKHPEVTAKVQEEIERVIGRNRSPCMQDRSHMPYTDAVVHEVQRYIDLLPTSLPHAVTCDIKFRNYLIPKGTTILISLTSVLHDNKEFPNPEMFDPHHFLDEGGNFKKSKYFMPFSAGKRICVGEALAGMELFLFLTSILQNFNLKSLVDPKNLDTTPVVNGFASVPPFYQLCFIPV

[16] = molecular target: Cytochrome P450 2C19 (Homo sapiens, UniProt P33261); experiment: Inhibition of CYP2C19 (unknown origin); type: ADME
Cytochrome P450 2C19, sequence (P33261 whole entry): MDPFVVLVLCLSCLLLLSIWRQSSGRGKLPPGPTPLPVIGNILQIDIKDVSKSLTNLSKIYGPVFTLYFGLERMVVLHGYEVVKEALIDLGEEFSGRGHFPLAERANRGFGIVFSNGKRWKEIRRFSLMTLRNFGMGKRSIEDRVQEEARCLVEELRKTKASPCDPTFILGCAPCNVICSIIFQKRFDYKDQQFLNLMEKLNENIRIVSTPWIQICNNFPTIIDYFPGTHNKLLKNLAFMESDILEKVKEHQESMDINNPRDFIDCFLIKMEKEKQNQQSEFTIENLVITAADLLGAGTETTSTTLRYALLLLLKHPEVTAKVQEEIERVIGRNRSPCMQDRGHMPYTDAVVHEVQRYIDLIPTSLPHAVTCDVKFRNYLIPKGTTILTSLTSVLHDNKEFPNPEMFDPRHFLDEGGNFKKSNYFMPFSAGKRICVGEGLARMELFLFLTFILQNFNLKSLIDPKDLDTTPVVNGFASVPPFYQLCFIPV

[17] = molecular target: T1, Lysine-specific histone demethylase 1A; experiment: Non-competitive inhibition of recombinant full-length His6-tagged LSD1 (unknown origin) using dimethylated K4N-terminal H3 peptide as substrate at 3 nM by Michaelis-Menten plot analysis
[18] = molecular target: T1, Lysine-specific histone demethylase 1A; experiment: Non-competitive inhibition of recombinant full-length His6-tagged LSD1 (unknown origin) using dimethylated K4N-terminal H3 peptide as substrate at 1 nM by Michaelis-Menten plot analysis
[19] = molecular target: T1, Lysine-specific histone demethylase 1A; experiment: Non-competitive inhibition of recombinant full-length His6-tagged LSD1 (unknown origin) using dimethylated K4N-terminal H3 peptide as substrate at 30 nM by Michaelis-Menten plot analysis
[20] = molecular target: T1, Lysine-specific histone demethylase 1A; experiment: Non-competitive inhibition of recombinant full-length His6-tagged LSD1 (unknown origin) using dimethylated K4N-terminal H3 peptide as substrate at 100 nM by Michaelis-Menten plot analysis
[21] = Inhibition of glucose oxidase (unknown origin)
[22] = molecular target: T3, Cytochrome P450 1A2 (Homo sapiens, UniProt P05177); experiment: Inhibition of CYP1A2 (unknown origin); type: ADME
T3 sequence (P05177 whole entry): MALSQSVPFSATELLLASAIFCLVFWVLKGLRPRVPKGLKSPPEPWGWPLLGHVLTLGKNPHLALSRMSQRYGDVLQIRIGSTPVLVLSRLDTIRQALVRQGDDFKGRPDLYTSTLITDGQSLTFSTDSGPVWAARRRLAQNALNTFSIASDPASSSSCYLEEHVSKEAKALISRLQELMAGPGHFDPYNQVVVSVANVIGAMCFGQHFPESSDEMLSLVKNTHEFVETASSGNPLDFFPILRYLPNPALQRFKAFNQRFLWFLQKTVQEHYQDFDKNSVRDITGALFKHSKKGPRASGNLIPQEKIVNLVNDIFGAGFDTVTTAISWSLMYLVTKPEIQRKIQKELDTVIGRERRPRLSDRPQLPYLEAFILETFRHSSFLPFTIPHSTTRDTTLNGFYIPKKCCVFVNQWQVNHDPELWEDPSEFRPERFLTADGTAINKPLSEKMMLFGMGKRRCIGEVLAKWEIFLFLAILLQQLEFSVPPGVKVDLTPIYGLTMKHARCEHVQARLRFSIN

[23] = molecular target: T4, Amine oxidase [flavin-containing] A (Homo sapiens, UniProt P21397)
T4 sequence (P21397 whole entry): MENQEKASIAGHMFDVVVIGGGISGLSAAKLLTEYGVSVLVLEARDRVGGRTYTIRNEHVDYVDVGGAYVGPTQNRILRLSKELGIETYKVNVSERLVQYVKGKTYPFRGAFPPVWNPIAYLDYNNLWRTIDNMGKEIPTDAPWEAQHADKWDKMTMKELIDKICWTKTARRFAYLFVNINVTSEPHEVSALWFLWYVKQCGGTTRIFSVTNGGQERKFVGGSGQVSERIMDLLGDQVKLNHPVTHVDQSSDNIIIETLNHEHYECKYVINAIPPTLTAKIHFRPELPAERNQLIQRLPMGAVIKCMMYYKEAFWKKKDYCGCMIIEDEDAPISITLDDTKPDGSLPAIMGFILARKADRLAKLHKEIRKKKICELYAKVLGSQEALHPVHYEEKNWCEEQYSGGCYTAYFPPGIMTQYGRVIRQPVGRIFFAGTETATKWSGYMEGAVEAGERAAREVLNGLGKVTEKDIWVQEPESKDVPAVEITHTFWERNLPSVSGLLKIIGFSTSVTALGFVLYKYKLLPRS
Description: Inhibition of MAO-A (unknown origin)

[24] = molecular target: T1, Lysine-specific histone demethylase 1A; experiment: Inhibition of human recombinant LSD1 expressed in Escherichia coli BL21(DE3) using H3K4me2 as substrate by chemiluminescence assay

C/C(=N/NC(=O)c1ccc(Cl)c(Br)c1)c1cc(Cl)ccc1O
IC50 [1]: 0.565 µM
IC50 [2]: > 3 µM

O=C(NNC(=O)c1cc(S(=O)(=O)N2CCOCC2)ccc1F)c1cccc(Cl)c1
IC50 [1]: > 10 µM
IC50 [2]: > 3 µM

C/C(=N\NC(=O)c1cccc(S(=O)(=O)N2CCOCC2)c1)c1cc(Cl)ccc1Cl
IC50 [1]: 1.7 µM
inhibition [3]: inactive
Tm [4]: 46.7 °C
IC50 [2]: > 3 µM
inhibition [5]: inactive
Tm [6]: 40.8 °C
Tm [7]: 43.3 °C

COC(=O)c1cc(CN2CCN(C(=N)N)CC2)cc(C(=O)N2CCN(C(=O)c3ccc(C=N)cc3)CC2)c1
IC50 [8]: 5.2 µM

C/C(=N\NC(=O)c1cccc(S(=O)(=O)N2CCOCC2)c1)c1cc(Cl)ccc1O
IC50 [9]: > 300 µM
IC50 [10]: > 10 µM
IC50 [11]: > 10 µM
Ki [12]: 0.0319 µM
IC50 [13]: 2.61 µM
IC50 [14]: > 10 µM
IC50 [15]: 8.04 µM
IC50 [16]: 9.76 µM
Ki [17]: 0.0353 µM
Ki [18]: 0.0135 µM
Ki [19]: 0.0352 µM
inhibition [5]: 65.7%
Tm [6]: 45.4 °C
Ki [20]: 0.0547 µM
IC50 [21]: > 10 µM
Tm [7]: 44.6 °C
IC50 [22]: > 10 µM
IC50 [23]: > 300 µM

CC/C(=N/NC(=O)c1cccc(S(=O)(=O)N2CCOCC2)c1)c1cc(Cl)ccc1O
IC50 [1]: 0.352 µM
IC50 [2]: > 3 µM

C/C(=N\NC(=O)c1cccc(S(=O)(=O)N2CCOCC2)c1)c1cccc(Cl)c1F
IC50 [1]: > 10 µM
IC50 [2]: > 3 µM

C/C(=N/NC(=O)c1cnc(Cl)c(Br)c1)c1cc(Cl)ccc1O
IC50 [1]: 0.27 µM
IC50 [2]: > 3 µM

CCN(CC)c1cccc(C(=O)N/N=C(\C)c2cccc(C)c2)c1
IC50 [1]: > 10 µM
IC50 [2]: > 3 µM

C/C(=N\NC(=O)c1ccccc1)c1c(O)cccc1O
IC50 [1]: > 10 µM
IC50 [2]: > 3 µM

C/C(=N\NC(=O)c1cccc(S(=O)(=O)N2CCOCC2)c1)c1cccc2ccccc12
IC50 [1]: > 10 µM

C/C(=N\NC(=O)c1cccc(S(=O)(=O)N2CCOCC2)c1)c1ccnc(Cl)c1
IC50 [1]: > 10 µM
IC50 [2]: > 3 µM

C/C(=N/NC(=O)c1cccc(S(=O)(=O)N(C)C)c1)c1cc(Cl)ccc1O
IC50 [1]: 1.38 µM

COc1ccc(Cl)cc1C(=O)NNC(=O)c1cc(S(=O)(=O)N2CCOCC2)ccc1F
IC50 [1]: > 10 µM
IC50 [2]: > 3 µM

CCNCCCNC/C=C\CNCCCNCC
IC50 [24]: 0.25 µM

C/C(=N/NC(=O)c1cncc(Cl)c1)c1cc(Cl)ccc1O
IC50 [1]: 0.616 µM
IC50 [2]: > 3 µM

C/C(=N/NC(=O)c1cccc(S(=O)(=O)N2CCOCC2)c1)c1cccnc1
IC50 [2]: > 3 µM
